Where a name gives a salt, the structure may show the parent alone.
Tests used:
[1] = Long-term stability of lyophilisates stored in air, content by HPLC; assay type: physicochemical; conditions: room temperature, pharmaceutical composition such as a lyophilisate
Method: (§1) In order to determine the long-term stabilities of (6R)-5,10-CH2-THF hemisulfate salt as pharmaceutical compositions, more specifically as lyophilisates (as prepared according to e.g. Example 5), lyophilisates were stored in air at 25° C. and at 60% relative humidity. The content of (6R)-5,10-CH2-THF hemisulfate salt remaining was measured by HPLC at periodic intervals and is given by comparison with the initial value (% rel.).

[2] = Long-term stability of hemisulfate salt stored in air, content by HPLC; assay type: physicochemical; conditions: for (6R)-5,10-CH2-THF hemisulfate remaining: solid, air, 25 °C/60% relative humidity
Method: as §1, with “salt, the compounds of the invention” for “salt as pharmaceutical compositions, more specifically as lyophilisates (as prepared according to e.g. Example 5), lyophilisates”

dogs = conditions: dog, in vivo, 50 mg/kg/day
[3] = Stability in 85% ethanol at room temperature (XRPD); assay type: physicochemical; conditions: 85% EtOH, stirred 5 h, filtered and dried
Method: (§2) Powder X-Ray Diffraction (Bruker D8 Advance): Copper Kα radiation, 40 kV/40 mA, LynxEye detector, Bragg-Brentano reflection geometry, 0.02° 2θ step size, 37 s step time, 2.5-50° 2θ range. Powder samples were measured in 0.1-mm or 0.5-mm deep silicon single-crystal sample holders. No special treatment was used in preparing the samples other than the application of slight pressure to get a flat surface. An ambient air atmosphere was used for all measurements, and the samples were rotated during the measurement. Absent any information to the contrary X-Ray Diffraction data is shown as reflection data.
• (b) Stability in 85% ethanol at room temperature
(§3) (6R)-5,10-CH2-THF hemisulfate salt (3.01 g) was dispersed in 100 ml 85% EtOH at room temperature and stirred for 5 h, then filtered and dried at 30° C. and 8 mbar for 12 hours (over night).

[4] = Suspension equilibration stability in solvents and mixtures; assay type: physicochemical
Text: • (a) Suspension equilibration of (6R)-5,10-CH2-THF hemisulfate salt as starting material at temperatures other than room temperature in a variety of solvents and mixture are summarized in Table 10: […]

[5] = Comparative long-term stability of sulfate salt, content by HPLC; assay type: physicochemical
Method: In order to compare the long-term stabilities of (6R)-5,10-CH2-THF hemisulfate salt, the compounds of the invention, to the long-term stabilities of (6R)-5,10-CH2-THF sulfate salt prepared according to EP 0 537 492 B1, stability data for (6R)-5,10-CH2-THF sulfate salt has been generated at various temperatures and humidities. • (a) Stability of (6R)-5,10-CH2-THF sulfate
(6R)-5,10-CH2-THF sulfate salt was prepared according to literature procedures (EP 0 537 492 B1) and stored for 15 month at −20° C. Subsequently, samples of the product were stored at 5° C. resp. at 25° C. and 60% relative humidity resp. at 40° C. and 75% relative humidity. The content of (6R)-5,10-CH2-THF sulfate salt remaining in the sample was measured by HPLC at periodic intervals. The content of (6R)-5,10-CH2-THF sulfate was compared to the initial value at the time of preparation (% rel.).

[6] = Stability at high temperature/low pressure (XRPD); assay type: physicochemical; conditions: drying chamber 65 °C, 8 mbar, 21 h
Method: as §2, §3
(6R)-5,10-CH2-THF hemisulfate salt (2.17 g) was placed in a drying chamber at 65° C. and 8 mbar for 21 h.

rats = conditions: rat, in vivo, 100 mg/kg/day
[7] = Phase I/II study ISO-CC-002, pharmacokinetics/pharmacodynamics versus Levoleucovorin in tumor tissue, adjacent mucosa and blood plasma; assay type: in vivo; conditions: colon cancer patients
Method: (b) In a single-blinded, randomized phase I/II study (ISO-CC-002) performed on 32 patients diagnosed with colon cancer the pharmacokinetic and pharmacodynamic properties of (6R)-5,10-CH2-THF hemisulfate compared to Levoleucovorin in tumor tissue, adjacent mucosa and blood plasma were investigated. The study was performed at the Sahlgrenska University Hospital in Göteborg, Sweden. […] The concentrations of methylenetetrahydrofolate and tetrahydrofolate in both tumor and adjacent mucosa were also much higher after administration of (6R)-5,10-CH2-THF hemisulfate than those obtained after administration of Levoleucovorin.

patients = experiment: Clinical safety data in patients; assay type: in vivo; conditions: doses of up to 200 mg/m^2
[8] = TG-FTIR thermogram under N2 flow; assay type: physicochemical; conditions: 10 K min^−1
Method: TG-FTIR (Netzsch Thermo-Microbalance TG 209 with Bruker FT-IR Spectrometer IFS 28): Al crucible (with microhole); N2 atmosphere; 10 K min^−1 heating rate; 25° C. to 300° C. range.
• (a) The FT Raman spectrum of (6R)-5,10-CH2-THF hemisulfate salt, recorded using a nominal laser power level of 300 mW and 64 scans is shown in FIG. 1. • (b) The corresponding powder X-ray diffractogram, recorded in transmission mode, is shown in FIG. 2. • (c) The TG-FTIR thermogram of (6R)-5,10-CH2-THF hemisulfate salt is shown in FIG. 3. It was carried out under N2 flow (to avoid oxidative degradation). […] Prior to the first heating scan, the sample was equilibrated for three minutes under gaseous nitrogen flow and lost 0.6 wt.-% of its mass during that time. This is consistent with the water content observed in the TG-FTIR thermogram (see FIG. 3) and confirms that this water is loosely bound. The sample was subsequently heated in a closed gold crucible to 254° C. at 10 K min^−1, quench cooled to −50° C., and heated a second time at 10 K min^−1. […] No other thermal events were observed up to 250° C. • (e) The IR spectrum was recorded in a pressed KBr pellet and the characteristic absorption bands are shown in Table 3. • (f) The ^1H NMR spectrum of (6R)-5,10-CH2-THF hemisulfate salt was recorded in DMSO-d6 and the chemical shifts (d) in ppm are shown in Table 8.

For `Nc1nc2c(c(=O)[nH]1)N1CN(c3ccc(C(=O)N[C@@H](CCC(=O)O)C(=O)O)cc3)C[C@H]1CN2` [(6R)-5,10-CH2-THF hemisulfate salt, 5,10-methylene-(6R)-tetrahydrofolic acid], which “Stability over a long period of time (conclusion from Table 12)” value [1] is on record?
The value was “highly stable”.

What about the “Stability over a long period of time (conclusion from Table 11)” value ([2]; room temperature, pure compound) of the same compound?
The value was “highly stable”.

And the “(6R)-5,10-CH2-THF hemisulfate remaining” value ([2]; 0 months)?
Its value is 100.0 % rel.

What about the “(6R)-5,10-CH2-THF hemisulfate remaining” value ([2]; 3 months, listed as (6R)-5,10-CH2-THF hemisulfate (batch 1)) of the same compound?
The value was 99.7 % rel.

What about the “(6R)-5,10-CH2-THF hemisulfate remaining” value ([2]; 3 months, listed as (6R)-5,10-CH2-THF hemisulfate (batch 2)) of the same compound?
Its value is 99.9 % rel.

And the “(6R)-5,10-CH2-THF hemisulfate remaining” value ([2]; 3 months, listed as (6R)-5,10-CH2-THF hemisulfate (batch 3))?
The value was 99.5 % rel.

And the “(6R)-5,10-CH2-THF hemisulfate remaining” value ([2]; 6 months)?
The value was 99.5 % rel.

And the “(6R)-5,10-CH2-THF hemisulfate remaining” value ([2]; 6 months, listed as (6R)-5,10-CH2-THF hemisulfate (batch 2))?
Its value is 99.9 % rel.

And the “(6R)-5,10-CH2-THF hemisulfate remaining” value ([2]; 9 months, listed as (6R)-5,10-CH2-THF hemisulfate (batch 1))?
Its value is 99.6 % rel.

What about the “(6R)-5,10-CH2-THF hemisulfate remaining” value ([2]; 9 months, listed as (6R)-5,10-CH2-THF hemisulfate (batch 2)) of the same compound?
Its value is 100.0 % rel.

And the “(6R)-5,10-CH2-THF hemisulfate remaining” value ([2]; 9 months, listed as (6R)-5,10-CH2-THF hemisulfate (batch 3))?
Its value is 99.4 % rel.

And the “(6R)-5,10-CH2-THF hemisulfate remaining” value ([2]; 12 months, listed as (6R)-5,10-CH2-THF hemisulfate (batch 1))?
The value was 99.2 % rel.

What about the “(6R)-5,10-CH2-THF hemisulfate remaining” value ([2]; 12 months, listed as (6R)-5,10-CH2-THF hemisulfate (batch 2)) of the same compound?
Its value is 99.7 % rel.

And the “(6R)-5,10-CH2-THF hemisulfate remaining” value ([2]; 12 months, listed as (6R)-5,10-CH2-THF hemisulfate (batch 3))?
The value was 99.1 % rel.

And the “(6R)-5,10-CH2-THF hemisulfate remaining” value ([2]; 18 months, listed as (6R)-5,10-CH2-THF hemisulfate (batch 1))?
Its value is 99.2 % rel.

And the “(6R)-5,10-CH2-THF hemisulfate remaining” value ([2]; 18 months, listed as (6R)-5,10-CH2-THF hemisulfate (batch 2))?
Its value is 99.4 % rel.

What about the “(6R)-5,10-CH2-THF hemisulfate remaining” value ([2]; 18 months, listed as (6R)-5,10-CH2-THF hemisulfate (batch 3)) of the same compound?
The value was 99.0 % rel.

What about the “(6R)-5,10-CH2-THF hemisulfate remaining” value ([2]; 24 months, listed as (6R)-5,10-CH2-THF hemisulfate (batch 1)) of the same compound?
Its value is 99.4 % rel.

What about the “(6R)-5,10-CH2-THF hemisulfate remaining” value ([2]; 24 months, listed as (6R)-5,10-CH2-THF hemisulfate (batch 2)) of the same compound?
Its value is 99.4 % rel.

And the “(6R)-5,10-CH2-THF hemisulfate remaining” value ([2]; 24 months, listed as (6R)-5,10-CH2-THF hemisulfate (batch 3))?
The value was 99.0 % rel.

What about the “(6R)-5,10-CH2-THF hemisulfate remaining” value ([2]; 36 months, listed as (6R)-5,10-CH2-THF hemisulfate (batch 1)) of the same compound?
Its value is 98.5 % rel.

What about the “(6R)-5,10-CH2-THF hemisulfate remaining” value ([2]; 36 months, listed as (6R)-5,10-CH2-THF hemisulfate (batch 2)) of the same compound?
The value was 99.0 % rel.

What about the “Safety at highest dose-level administered” value (dogs) of the same compound?
The value was “safe”.

And the “X-ray pattern distinctive for crystal form Type 1” value [3]?
Its value is “remained unchanged”.

And the “Observation (suspension equilibration)” value ([4]; 2-PrOH with ~2 mM L-ascorbic acid, 40 °C, 3 d)?
Its value is “No change”.

What about the “Observation (suspension equilibration)” value ([4]; AcOH saturated with L-ascorbic acid, 50 °C, 1 d) of the same compound?
Its value is “No change”.

And the “Observation (suspension equilibration)” value ([4]; AcOH saturated with L-ascorbic acid, 50 °C, 5 d)?
The value was “No change”.

What about the “Observation (suspension equilibration)” value ([4]; H2O, 5 °C, 6 d) of the same compound?
Its value is “No change”.

What about the “Observation (suspension equilibration)” value ([4]; MeCN saturated with L-ascorbic acid, 50 °C, 5 d) of the same compound?
The value was “No change”.

And the “Observation (suspension equilibration)” value ([4]; MeOH/formic acid 1:1, 50 °C, 2 h)?
The value was “No change”.

And the “Observation (suspension equilibration)” value ([4]; PEG4500/EtOH 1:9 saturated with L-ascorbic acid, 50 °C, 7 d)?
The value was “No change”.

What about the “Observation (suspension equilibration)” value ([4]; THF with ~2 mM L-ascorbic acid, 40 °C, 3 d) of the same compound?
Its value is “No change”.

And the “Observation (suspension equilibration)” value ([4]; formic acid/THF 1:3, 10-20 °C, 6 d)?
Its value is “No change”.

And the “Stability over a long period of time compared to (6R)-5,10-CH2-THF sulfate” value ([5]; comparison of Tables 13 and 14 with Example 3)?
Its value is “much more stable”.

And the “X-ray pattern distinctive for crystal form Type 1” value [6]?
The value was “remained unchanged”.

What about the “Safety at highest dose-level administered” value (rats) of the same compound?
Its value is “safe”.

What about the “Exposure of methylenetetrahydrofolate compared to Levoleucovorin” value ([7]; blood plasma) of the same compound?
Its value is “substantially greater”.

What about the “Peak plasma concentrations of methylenetetrahydrofolate compared to Levoleucovorin” value ([7]; blood plasma) of the same compound?
Its value is “substantially greater”.

What about the “Concentration of methylenetetrahydrofolate compared to Levoleucovorin” value ([7]; both tumor and adjacent mucosa) of the same compound?
Its value is “much higher”.

What about the “Concentration of tetrahydrofolate compared to Levoleucovorin” value ([7]; both tumor and adjacent mucosa) of the same compound?
Its value is “much higher”.

And the Safety for patients (patients)?
The Safety for patients was “safe”.

And the “Decomposition temperature (TG-FTIR)” value [8]?
Its value is “above 210 °C”.

Which “(6R)-5,10-CH2-THF sulfate remaining” value ([5]; 5 °C, 0 months, after 15 months at −20 °C, relative to value at preparation) does the source give for `Nc1nc2c(c(=O)[nH]1)N1CN(c3ccc(C(=O)N[C@@H](CCC(=O)O)C(=O)O)cc3)C[C@H]1CN2` [(6R)-5,10-CH2-THF sulfate, 5,10-methylene-(6R)-tetrahydrofolic acid] here?
Its value is 98.7 % rel.

What about the “(6R)-5,10-CH2-THF sulfate remaining” value ([5]; 5 °C, 6 months, after 15 months at −20 °C, relative to value at preparation) of the same compound?
The value was 97.3 % rel.

What about the “(6R)-5,10-CH2-THF sulfate remaining” value ([5]; 25 °C/60% rh, 0 months, after 15 months at −20 °C, relative to value at preparation) of the same compound?
The value was 98.7 % rel.

What about the “(6R)-5,10-CH2-THF sulfate remaining” value ([5]; 25 °C/60% rh, 6 months, after 15 months at −20 °C, relative to value at preparation) of the same compound?
The value was 95.5 % rel.

What about the “(6R)-5,10-CH2-THF sulfate remaining” value ([5]; 40 °C/75% rh, 0 months, after 15 months at −20 °C, relative to value at preparation) of the same compound?
The value was 98.7 % rel.

What about the “(6R)-5,10-CH2-THF sulfate remaining” value ([5]; 40 °C/75% rh, 6 months, after 15 months at −20 °C, relative to value at preparation) of the same compound?
The value was 95.0 % rel.

And the “(6R)-5,10-CH2-THF sulfate remaining” value ([5]; −20 °C, 0 months)?
Its value is 100.0 % rel.

And the “(6R)-5,10-CH2-THF sulfate remaining” value ([5]; −20 °C, 15 months)?
Its value is 98.7 % rel.
